# Assay results as given in paper PMC10247784, “Physiological activation of human and mouse bitter taste receptors by bile acids” (Communications Biology, 2023).
# Values joined by “and” are separate entries in the source; they are usually repeats but may differ in a detail not shown here. Identical values can stand only once.
# Biological target: T1, human TAS2R4 (Homo sapiens, UniProt Q9NYW5)
# T1 construct: expressed in transfected cells; host or cells: HEK293T-Gα16gust44
# T1 sequence (Q9NYW5 1-299): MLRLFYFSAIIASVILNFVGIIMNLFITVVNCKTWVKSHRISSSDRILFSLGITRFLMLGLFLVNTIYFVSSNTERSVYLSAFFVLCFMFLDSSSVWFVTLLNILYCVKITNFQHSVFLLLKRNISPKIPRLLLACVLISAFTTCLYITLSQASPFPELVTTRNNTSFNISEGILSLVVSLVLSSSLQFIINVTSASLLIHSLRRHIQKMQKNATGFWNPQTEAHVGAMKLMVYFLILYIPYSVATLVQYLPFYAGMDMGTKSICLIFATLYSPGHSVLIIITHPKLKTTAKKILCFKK
# Assay: Calcium imaging assay (FLIPR), HEK293T-Gα16gust44 cells transfected with human TAS2R4
# Assay type: cell-based
# In short: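 Read-out is Fluo-4 fluorescence change (ΔF/F) after automated application of bile acids (DMSO stocks) to transiently transfected cells. Values are corrected for empty-vector cells and normalized to buffer. Dose-response from three independent experiments in duplicate; threshold concentration set at p < 0.01 versus mock.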
smiles,measurement,setting,value
"C[C@H](CCC(=O)O)[C@H]1CC[C@H]2[C@@H]3[C@H](O)C[C@@H]4C[C@H](O)CC[C@]4(C)[C@H]3C[C@H](O)[C@]12C [Cholic Acid, cholic acid]",Efficacy = maximal amplitude (ΔF/F),"TAS2R4, bile acids, mean",0.1231
same,"Efficacy (maximal amplitude ΔF/F), individual data points","TAS2R4, bile acids, single replicates, listed as CA",0.1201 and 0.127 and 0.1223
same,"RLU, fluorescence trace",Time (s) 0,0 RLU
same,"RLU, fluorescence trace",Time (s) 2,19.1006 RLU
same,"RLU, fluorescence trace",Time (s) 4,0.3953 RLU
same,"RLU, fluorescence trace",Time (s) 6,2.918 RLU
same,"RLU, fluorescence trace",Time (s) 8,21.2897 RLU
same,"RLU, fluorescence trace",Time (s) 12,0.674 RLU
same,"RLU, fluorescence trace",Time (s) 14,-1.277 RLU
same,"RLU, fluorescence trace",Time (s) 16,19.6047 RLU
same,"RLU, fluorescence trace",Time (s) 18,0.9534 RLU
same,"RLU, fluorescence trace","Time (s) 18.766 (TCA, TLCA: 18.782)",-8.812 RLU
same,"RLU, fluorescence trace","Time (s) 20.781 (TCA, TLCA: 20.782)",-52.2052 RLU
same,"RLU, fluorescence trace","Time (s) 22.781 (TCA, TLCA: 22.782)",12.9621 RLU
same,"RLU, fluorescence trace","Time (s) 24.781 (TCA, TLCA: 24.782)",16.2873 RLU
same,"RLU, fluorescence trace","Time (s) 26.781 (TCA, TLCA: 26.782)",53.8077 RLU
same,"RLU, fluorescence trace","Time (s) 28.781 (TCA, TLCA: 28.782)",116.69 RLU
same,"RLU, fluorescence trace","Time (s) 30.781 (TCA, TLCA: 30.782)",202.767 RLU
same,"RLU, fluorescence trace","Time (s) 32.781 (TCA, TLCA: 32.782)",286.976 RLU
same,"RLU, fluorescence trace","Time (s) 34.781 (TCA, TLCA: 34.782)",331.157 RLU
same,"RLU, fluorescence trace","Time (s) 36.781 (TCA, TLCA: 36.782)",398.002 RLU
same,"RLU, fluorescence trace","Time (s) 38.781 (TCA, TLCA: 38.782)",447.116 RLU
same,"RLU, fluorescence trace","Time (s) 40.781 (TCA, TLCA: 40.782)",484.385 RLU
same,"RLU, fluorescence trace","Time (s) 42.781 (TCA, TLCA: 42.782)",513.813 RLU
same,"RLU, fluorescence trace","Time (s) 44.781 (TCA, TLCA: 44.782)",571.4 RLU
same,"RLU, fluorescence trace","Time (s) 46.781 (TCA, TLCA: 46.782)",576.681 RLU
same,"RLU, fluorescence trace","Time (s) 48.781 (TCA, TLCA: 48.782)",621.92 RLU
same,"RLU, fluorescence trace","Time (s) 50.781 (TCA, TLCA: 50.782)",628.153 RLU
same,"RLU, fluorescence trace","Time (s) 52.781 (TCA, TLCA: 52.782)",608.216 RLU
same,"RLU, fluorescence trace","Time (s) 54.781 (TCA, TLCA: 54.782)",673.422 RLU
same,"RLU, fluorescence trace","Time (s) 56.781 (TCA, TLCA: 56.782)",649.648 RLU
same,"RLU, fluorescence trace","Time (s) 58.781 (TCA, TLCA: 58.782)",665.81 RLU
same,"RLU, fluorescence trace","Time (s) 60.781 (TCA, TLCA: 60.782)",679.484 RLU
same,"RLU, fluorescence trace","Time (s) 62.781 (TCA, TLCA: 62.782)",679.42 RLU
same,"RLU, fluorescence trace","Time (s) 64.781 (TCA, TLCA: 64.782)",662.359 RLU
same,"RLU, fluorescence trace","Time (s) 66.781 (TCA, TLCA: 66.782)",681.18 RLU
same,"RLU, fluorescence trace","Time (s) 68.781 (TCA, TLCA: 68.782)",661.786 RLU
same,"RLU, fluorescence trace","Time (s) 70.781 (TCA, TLCA: 70.782)",663.821 RLU
same,"RLU, fluorescence trace","Time (s) 72.781 (TCA, TLCA: 72.782)",677.656 RLU
same,"RLU, fluorescence trace","Time (s) 74.781 (TCA, TLCA: 74.782)",687.298 RLU
same,"RLU, fluorescence trace","Time (s) 76.781 (TCA, TLCA: 76.782)",685.082 RLU
same,"RLU, fluorescence trace","Time (s) 78.781 (TCA, TLCA: 78.782)",661.065 RLU
same,"RLU, fluorescence trace","Time (s) 80.781 (TCA, TLCA: 80.782)",659.476 RLU
same,"RLU, fluorescence trace","Time (s) 82.781 (TCA, TLCA: 82.782)",652.14 RLU
same,"RLU, fluorescence trace","Time (s) 84.781 (TCA, TLCA: 84.782)",621.974 RLU
same,"RLU, fluorescence trace","Time (s) 86.781 (TCA, TLCA: 86.782)",644.971 RLU
same,"RLU, fluorescence trace","Time (s) 88.781 (TCA, TLCA: 88.782)",652.467 RLU
same,"RLU, fluorescence trace","Time (s) 90.781 (TCA, TLCA: 90.782)",634.908 RLU
same,"RLU, fluorescence trace","Time (s) 92.781 (TCA, TLCA: 92.782)",616.215 RLU
same,"RLU, fluorescence trace","Time (s) 94.781 (TCA, TLCA: 94.782)",623.143 RLU
same,"RLU, fluorescence trace","Time (s) 96.781 (TCA, TLCA: 96.782)",577.048 RLU
same,"RLU, fluorescence trace","Time (s) 98.781 (TCA, TLCA: 98.782)",590.83 RLU
same,"RLU, fluorescence trace","Time (s) 100.781 (TCA, TLCA: 100.782)",594.46 RLU
same,"RLU, fluorescence trace","Time (s) 102.781 (TCA, TLCA: 102.782)",570.853 RLU
same,"RLU, fluorescence trace","Time (s) 104.781 (TCA, TLCA: 104.782)",535.832 RLU
same,"RLU, fluorescence trace","Time (s) 106.781 (TCA, TLCA: 106.782)",576.036 RLU
same,"RLU, fluorescence trace","Time (s) 108.781 (TCA, TLCA: 108.782)",552.984 RLU
same,"RLU, fluorescence trace","Time (s) 110.781 (TCA, TLCA: 110.782)",539.61 RLU
same,"RLU, fluorescence trace","Time (s) 112.781 (TCA, TLCA: 112.782)",529.912 RLU
same,"RLU, fluorescence trace","Time (s) 114.781 (TCA, TLCA: 114.782)",525.649 RLU
same,"RLU, fluorescence trace","Time (s) 116.781 (TCA, TLCA: 116.782)",514.781 RLU
same,"RLU, fluorescence trace","Time (s) 118.781 (TCA, TLCA: 118.782)",515.049 RLU
same,"RLU, fluorescence trace","Time (s) 120.781 (TCA, TLCA: 120.782)",488.175 RLU
same,"RLU, fluorescence trace","Time (s) 122.781 (TCA, TLCA: 122.782)",489.541 RLU
same,"RLU, fluorescence trace","Time (s) 124.781 (TCA, TLCA: 124.782)",470.085 RLU
same,"RLU, fluorescence trace","Time (s) 126.781 (TCA, TLCA: 126.782)",464.513 RLU
same,"RLU, fluorescence trace","Time (s) 128.781 (TCA, TLCA: 128.782)",464.071 RLU
same,"RLU, fluorescence trace","Time (s) 130.781 (TCA, TLCA: 130.782)",466.285 RLU
same,"RLU, fluorescence trace","Time (s) 132.781 (TCA, TLCA: 132.782)",460.578 RLU
same,"RLU, fluorescence trace","Time (s) 134.781 (TCA, TLCA: 134.782)",427.673 RLU
same,"RLU, fluorescence trace","Time (s) 136.781 (TCA, TLCA: 136.782)",445.361 RLU
same,"RLU, fluorescence trace",Time (s) 137.547,436.003 RLU
same,"RLU, fluorescence trace",Time (s) 143.547,408.618 RLU
same,"RLU, fluorescence trace",Time (s) 149.547,386.336 RLU
same,"RLU, fluorescence trace",Time (s) 155.547,351.767 RLU
same,"RLU, fluorescence trace",Time (s) 161.547,346.602 RLU
same,"RLU, fluorescence trace",Time (s) 167.547,335.172 RLU
same,"RLU, fluorescence trace",Time (s) 173.547,264.873 RLU
same,"RLU, fluorescence trace",Time (s) 179.547,265.3 RLU
same,"RLU, fluorescence trace",Time (s) 185.547,242.782 RLU
same,"RLU, fluorescence trace",Time (s) 191.547,246.932 RLU
same,"RLU, fluorescence trace",Time (s) 197.547,258.506 RLU
same,"RLU, fluorescence trace",Time (s) 203.547,232.756 RLU
same,"RLU, fluorescence trace",Time (s) 209.547,219.78 RLU
same,"RLU, fluorescence trace",Time (s) 215.547,251.011 RLU
same,"RLU, fluorescence trace",Time (s) 221.547,260.591 RLU
same,"RLU, fluorescence trace",Time (s) 227.547,271.039 RLU
same,"RLU, fluorescence trace",Time (s) 233.547,291.66 RLU
same,"RLU, fluorescence trace",Time (s) 239.547,269.732 RLU
same,"RLU, fluorescence trace",Time (s) 245.547,266.514 RLU
same,"RLU, fluorescence trace",Time (s) 293.547,239.384 RLU
same,"RLU, fluorescence trace",Time (s) 299.547,250.874 RLU
same,"RLU, fluorescence trace",Time (s) 305.547,250.223 RLU
same,"RLU, fluorescence trace",Time (s) 311.547,248.529 RLU
same,"RLU, fluorescence trace",Time (s) 317.547,268.105 RLU
same,"RLU, fluorescence trace",Time (s) 323.547,278.662 RLU
same,"RLU, fluorescence trace",Time (s) 329.547,259.586 RLU
same,"RLU, fluorescence trace",Time (s) 335.547,285.984 RLU
same,"RLU, fluorescence trace",Time (s) 341.547,283.853 RLU
same,"RLU, fluorescence trace",Time (s) 347.547,275.523 RLU
same,"RLU, fluorescence trace",Time (s) 353.547,309.056 RLU
same,"RLU, fluorescence trace",Time (s) 359.547,277.364 RLU
same,Activation threshold concentration TAS2R4,lowest concentration with significantly increased fluorescence vs empty vector (p < 0.01),30 µM
